Patent US20220132846A1, “1-PYRIDYL-PYRAZOLYL AMIDE COMPOUNDS AND PREPARATION AND USES THEREOF” (HUNAN RESEARCH INSTITUTE OF CHEMICAL INDUSTRY CO., LTD., priority 2019, published 2022)

Experiments:
[1] = tested on: Armyworm (Mythimna separata (Walker)); assay: Test against armyworm, Potter tower method; assay type: in vivo; conditions: for mortality at 12.5 µg/mL / mortality at 50 µg/mL / mortality at 500 µg/mL: Mythimna separata, third-instar larvae, after 72 hours, read-out: Activity (mortality) level against armyworm; for mortality at 12.5 µg/mL: 12.5 mg/L; for mortality at 50 µg/mL: 50 mg/L; for mortality at 500 µg/mL: 500 mg/L; for Activity against armyworm, further screening (in words): compared with chlorantraniliprole (D1)
Procedure: Potter tower method: the test compound was dissolved in an appropriate solvent such as N,N-dimethylformamide, and then diluted with 0.2% aqueous solution of Tween 80 to the desired concentration, Those without the test compounds were set as blank controls. The fresh and tender corn leaves were taken and cut into fragments of basically the same size, then put into a Petri dish (diameter 90 mm) padded with filter paper in advance. Ten third-instar larvae of test insects were transferred into the dish and then placed under the Potter spray tower for being sprayed, each concentration treatment was sprayed at the amount of 1 mL and replicated 3 times. The dish was covered and then placed in a chamber for culture and observed regularly, after 72 hours, the dead insects was investigated and recorded and the mean mortality was calculated. […]

Aphis fabae = assay: Test against aphid, leaf dip method (Aphis fabae); assay type: in vivo; conditions: foliar; for mortality at 12.5 µg/mL: 12.5 mg/L; for mortality at 12.5 µg/mL / mortality at 50 µg/mL / mortality at 200 µg/mL / mortality at 500 µg/mL: after 24 hours, read-out: Activity (mortality) level against Aphis fabae; for mortality at 50 µg/mL: 50 mg/L; for mortality at 200 µg/mL: 200 mg/L; for mortality at 500 µg/mL: 500 mg/L
Procedure: For evaluating the activity of the compounds of this invention against Homoptera pests, Aphis fabae, wheat aphids, etc. were selected as the test insects, and the activity of the compounds of this invention against aphids was measured by leaf dip method indoors.
Leaf dip method (Aphis fabae): the test compound was dissolved in an appropriate solvent such as N,N-dimethylformamide, and then diluted with 0.2% aqueous solution of Tween 80 to the desired concentration, Those without the test compounds were set as blank controls, the treatments were replicated 3 times. Horsebean seedlings with no less than twenty 3-day-old Aphis fabae per plant was cut from the stem, 5 horsebean seedlings with the insects were dipped in the test solution for 5 seconds, then inserted into a sponge filled with water after sucked dry using filter paper, then covered with a glass tube and placed in a chamber for culture. After 24 hours, the number of living and dead insects were investigated and the results were averaged. […]

| SMILES | mortality at 12.5 µg/mL [1] [%] | mortality at 50 µg/mL [1] [%] | mortality at 500 µg/mL [1] [%] | mortality at 12.5 µg/mL (Aphis fabae) [%] | mortality at 50 µg/mL (Aphis fabae) [%] | mortality at 200 µg/mL (Aphis fabae) [%] | mortality at 500 µg/mL (Aphis fabae) [%] | Activity against armyworm, further screening (in words) [1] | LC50 (Aphis fabae; read-out: LC50 against Aphis fabae) [µg/mL] |
| --- | --- | --- | --- | --- | --- | --- | --- | --- | --- |
| CCCNC(=O)c1cc(Cl)cc(Cl)c1N(C)C(=O)c1cc(Br)nn1-c1ncccc1Cl [Compound 3, N-[2,4-dichloro-6-[(propylamino)carbonyl]phenyl]-N-methyl-1-(3-chloro-2-pyridinyl)-3-bromo-1H-pyrazole-5-carboxamide] | 90 to 100 | 90 to 100 | 90 to 100 | 90 to 100 | 90 to 100 | 90 to 100 | 90 to 100 |  |  |
| CC(C)NC(=O)c1cc(Cl)cc(Cl)c1N(C)C(=O)c1cc(Br)nn1-c1ncccc1Cl [Compound 5, N-[2,4-dichloro-6-[(isopropylamino)carbonyl]phenyl]-N-methyl-1-(3-chloro-2-pyridinyl)-3-bromo-1H-pyrazole-5-carboxamide] | 90 to 100 | 90 to 100 | 90 to 100 | 90 to 100 | 90 to 100 | 90 to 100 | 90 to 100 | excellent activity |  |
| CN(C(=O)c1cc(Br)nn1-c1ncccc1Cl)c1c(Cl)cc(Cl)cc1C(=O)NC1CC1 [Compound 6, N-[2,4-dichloro-6-[(cyclopropylamino)carbonyl]phenyl]-N-methyl-1-(3-chloro-2-pyridinyl)-3-bromo-1H-pyrazole-5-carboxamide] | 90 to 100 | 90 to 100 | 90 to 100 | 90 to 100 | 90 to 100 | 90 to 100 | 90 to 100 |  |  |
| CCCCNC(=O)c1cc(Cl)cc(Cl)c1N(C)C(=O)c1cc(Br)nn1-c1ncccc1Cl [Compound 7, N-[2,4-dichloro-6-[(butylamino)carbonyl]phenyl]-N-methyl-1-(3-chloro-2-pyridinyl)-3-bromo-1H-pyrazole-5-carboxamide] |  | 90 to 100 | 90 to 100 |  | 90 to 100 | 90 to 100 | 90 to 100 |  |  |
| CC(C)N(C)C(=O)c1cc(Cl)cc(Cl)c1N(C)C(=O)c1cc(Br)nn1-c1ncccc1Cl [Compound 13, N-[2,4-dichloro-6-[(methyl(isopropyl)amino)carbonyl]phenyl]-N-methyl-1-(3-chloro-2-pyridinyl)-3-bromo-1H-pyrazole-5-carboxamide] |  | 90 to 100 | 90 to 100 | 90 to 100 | 90 to 100 | 90 to 100 | 90 to 100 |  |  |
| CN(C(=O)c1cc(Br)nn1-c1ncccc1Cl)c1c(Cl)cc(Cl)cc1C(=O)N(C)C1CC1 [Compound 14, N-[2,4-dichloro-6-[(methyl(cyclopropyl)amino)carbonyl]phenyl]-N-methyl-1-(3-chloro-2-pyridinyl)-3-bromo-1H-pyrazole-5-carboxamide] | 90 to 100 | 90 to 100 | 90 to 100 | 90 to 100 | 90 to 100 | 90 to 100 | 90 to 100 | excellent activity |  |
| CCCN(CCC)C(=O)c1cc(Cl)cc(Cl)c1N(C)C(=O)c1cc(Br)nn1-c1ncccc1Cl [Compound 16, N-[2,4-dichloro-6-[(dipropylamino)carbonyl]phenyl]-N-methyl-1-(3-chloro-2-pyridinyl)-3-bromo-1H-pyrazole-5-carboxamide] |  | 90 to 100 | 90 to 100 | 90 to 100 | 90 to 100 | 90 to 100 | 90 to 100 |  |  |
| CCN(C(=O)c1cc(Br)nn1-c1ncccc1Cl)c1c(Cl)cc(Cl)cc1C(=O)N(C)C [Compound 17, N-[2,4-dichloro-6-[(dimethylamino)carbonyl]phenyl]-N-ethyl-1-(3-chloro-2-pyridinyl)-3-bromo-1H-pyrazole-5-carboxamide] | 90 to 100 | 90 to 100 | 90 to 100 | 90 to 100 | 90 to 100 | 90 to 100 | 90 to 100 |  |  |
| CCN(C)C(=O)c1cc(Cl)cc(Cl)c1N(CC)C(=O)c1cc(Br)nn1-c1ncccc1Cl [Compound 18, N-[2,4-dichloro-6-[(methyl(ethyl)amino)carbonyl]phenyl]-N-ethyl-1-(3-chloro-2-pyridinyl)-3-bromo-1H-pyrazole-5-carboxamide] |  | 90 to 100 | 90 to 100 | 90 to 100 | 90 to 100 | 90 to 100 | 90 to 100 |  |  |
| CCCN(C(=O)c1cc(Br)nn1-c1ncccc1Cl)c1c(Cl)cc(Cl)cc1C(=O)N(C)C [Compound 19, N-[2,4-dichloro-6-[(dimethylamino)carbonyl]phenyl]-N-propyl-1-(3-chloro-2-pyridinyl)-3-bromo-1H-pyrazole-5-carboxamide] |  | 90 to 100 | 90 to 100 | 90 to 100 | 90 to 100 | 90 to 100 | 90 to 100 |  |  |
| CCCN(C)C(=O)c1cc(Cl)cc(Cl)c1N(CCC)C(=O)c1cc(Br)nn1-c1ncccc1Cl [Compound 20, N-[2,4-dichloro-6-[(methyl(propyl)amino)carbonyl]phenyl]-N-propyl-1-(3-chloro-2-pyridinyl)-3-bromo-1H-pyrazole-5-carboxamide] |  | 90 to 100 | 90 to 100 |  |  | 90 to 100 | 90 to 100 |  |  |
| CN(C)C(=S)c1cc(Cl)cc(Cl)c1N(C)C(=O)c1cc(Br)nn1-c1ncccc1Cl [Compound 21, N-[2,4-dichloro-6-[(dimethylamino)thioxomethyl]phenyl]-N-methyl-1-(3-chloro-2-pyridinyl)-3-bromo-1H-pyrazole-5-carboxamide] |  | 90 to 100 | 90 to 100 | 90 to 100 | 90 to 100 | 90 to 100 | 90 to 100 |  |  |
| CC(C)N(C)C(=S)c1cc(Cl)cc(Cl)c1N(C)C(=O)c1cc(Br)nn1-c1ncccc1Cl [Compound 22, N-[2,4-dichloro-6-[(methyl(isopropyl)amino)thioxomethyl]phenyl]-N-methyl-1-(3-chloro-2-pyridinyl)-3-bromo-1H-pyrazole-5-carboxamide] | 90 to 100 | 90 to 100 | 90 to 100 | 90 to 100 | 90 to 100 | 90 to 100 | 90 to 100 |  |  |
| CCN(CC)C(=S)c1cc(Cl)cc(Cl)c1N(C)C(=O)c1cc(Br)nn1-c1ncccc1Cl [Compound 23, N-[2,4-dichloro-6-[(diethylamino)thioxomethyl]phenyl]-N-methyl-1-(3-chloro-2-pyridinyl)-3-bromo-1H-pyrazole-5-carboxamide] | 90 to 100 | 90 to 100 | 90 to 100 |  |  | 90 to 100 | 90 to 100 |  |  |
| CCN(CC)C(=S)c1cc(Cl)cc(Cl)c1N(C)C(=S)c1cc(Br)nn1-c1ncccc1Cl [Compound 24, N-[2,4-dichloro-6-[(diethylamino)thioxomethyl]phenyl]-N-methyl-1-(3-chloro-2-pyridinyl)-3-bromo-1H-pyrazole-5-carbothioamide] |  | 90 to 100 | 90 to 100 |  |  | 90 to 100 | 90 to 100 |  |  |
| CNC(=O)c1cc(Cl)cc(Br)c1N(C)C(=O)c1cc(Br)nn1-c1ncccc1Cl [Compound 25, N-[2-bromo-4-chloro-6-[(methylamino)carbonyl]phenyl]-N-methyl-1-(3-chloro-2-pyridinyl)-3-bromo-1H-pyrazole-5-carboxamide] | 90 to 100 | 90 to 100 | 90 to 100 | 90 to 100 | 90 to 100 | 90 to 100 | 90 to 100 |  |  |
| CCNC(=O)c1cc(Cl)cc(Br)c1N(C)C(=O)c1cc(Br)nn1-c1ncccc1Cl [Compound 26, N-[2-bromo-4-chloro-6-[(ethylamino)carbonyl]phenyl]-N-methyl-1-(3-chloro-2-pyridinyl)-3-bromo-1H-pyrazole-5-carboxamide] | 90 to 100 | 90 to 100 | 90 to 100 | 90 to 100 | 90 to 100 | 90 to 100 | 90 to 100 |  |  |
| O=[N+]([O-])/N=C1\NCCN1Cc1ccc(Cl)nc1 [imidacloprid, reference compound] |  |  |  |  |  |  |  |  | < 1 |
